From patent publication US11191855B2, “1,7-diaryl-1,6-heptadiene-3,5-dione derivatives, methods for the production and use thereof” (UNIVERSITÄTSKLINIKUM REGENSBURG, priority 2015, dated 2021)
Where a name gives a salt, the structure may show the parent alone. Read-outs that look alike come from different tables or passages of the source.

Experiments:
S. aureus ATCC 25923 [1] = test: Comparative Example 3: phototoxicity by methods c.1) and c.2); format: cell-based, Staphylococcus aureus; settings: either of the methods c.1) and c.2)
Description: (§1) A 2-hour culture was divided into 1800 μL aliquots. After centrifuging at 20° C., 830 rcf, 5 min (5417R centrifuge, Eppendorf, Hamburg, Germany), the pellets were re-suspended in phosphate buffer (Dulbeccos' Modified Phosphate Saline, DPBS, Sigma-Aldrich) with either 10 or 50 μM of the corresponding photosensitizer, wherein the final volume was kept at 1800 μL.
(§2) The irradiation was carried out under constant shaking (MTS4, IKA, Staufen, Germany, 175 rpm) from below on a LED array with maximum homogeneity of the lighting surface. All of the controls were shaken in the same manner. The technical data for the light source are shown in Table 2; the total dose of light applied was 33.8 J/cm^2.
(§3) The determination of the colony forming units (CFU) was carried out in accordance with the method published by Miles and Misra (Miles, A A; Misra, S S, Irwin, J O (1938 Nov.). “The estimation of the bactericidal power of the blood” The Journal of hygiene 38 (6): 732-49). In this regard, serial dilutions (1:10) of the corresponding bacterial suspension were produced in DPBS. 5×10 μL of each bacterial dilution was then dripped onto Todd-Hewitt plates (with broth, additional 1.5% agar (Agar-Agar, Kobe I, Roth, Karlsruhe, Germany) and incubated at 37° C. for 24 h. Next, the number of surviving colony forming units was determined. All of the tests were carried out four times. […]

E. coli ATCC 25922 [2] = test: as above; format: cell-based, Escherichia coli; settings: either of the methods c.1) and c.2)
Description: as §1, §2, §3

[3] = Comparative Example 3: stability and molar extinction coefficient in aqueous solution; format: physicochemical; settings: comparable with natural curcumin
Description: In a further test, the stability and phototoxicity of the following compounds were tested.
Incubation with the compound (71) (SACUR-01d) and the bacterial strains S. aureus ATCC 25923 and E. coli ATCC 25922 employed as well as irradiation with electromagnetic radiation and determination of the phototoxicity were carried out as described in sections c.1) and c.2) above. […] The free OH groups contribute greatly to this photo-instability because due to them, the compound can readily transform into the quinoid mesomer, and thus cleavage of one half of the molecule with the formation of ferulic acids or substituted vanillins is facilitated.
Aqueous solution A: distilled water.
Aqueous solution B: isotonic sodium chloride solution (0.9% by weight NaCl).
Aqueous solution C: PBS buffer, pH 7.4 (composition: see Sambrook, J.; Maniatis, T.; Russel, D. W.: Molecular cloning: a laboratory manual. Cold Spring Harbor Laboratory Press; 3rd edition (2001)).

E. coli ATCC 25922 [4] = test: Phototoxicity test c.2) (BlueV light source, emission maximum approx. 420 nm, CFU count); format: cell-based, Escherichia coli; settings: light dose 15.7 J/cm^2, approx. 420 nm, 15 min at 17.5 mW/cm^2, vs reference control
Description: A sample of the bacterial cell Staphylococcus. aureus (ATCC number: 25923) or Escherichia. coli (ATCC number: 25922) was removed from a cryo-freeze culture and cultured under aerobic conditions at 37° C. and 175 rpm overnight in an orbital shaker (MAXQ4000, Thermo Scientific, Dubuque, Iowa, USA). Growth was carried out in 20 mL Todd-Hewitt broth (Carl Roth, Karlsruhe, Germany) supplemented with 0.3% of yeast extract (AppliChem, Darmstadt, Germany).
In a second experiment, the photosensitizers (PS) used were dissolved in Millipore water and adjusted to various concentrations. 25 μL of a bacterial suspension grown overnight (˜108/mL) was incubated with 25 μL of photosensitizer solution of the various concentrations at room temperature for 10 seconds in darkness in a 96-well plate.
Next, the suspension was irradiated for 5-20 minutes. For the irradiation, the light source BlueV from Waldmann (Villingen-Schwenningen, Germany) was used, which emits light from 380 to 480 nm (emission maximum at approximately 420 nm). The applied energy density was 17.5 mW/cm^2.
Each experiment was accompanied by three controls in order to exclude side effect of the irradiation/photosensitizer (PS) on the survival of the bacteria: (i) no PS, only light (=light control), (ii) no light, only PS (=dark control) and (iii) neither light nor PS (=reference control). The determination of the colony forming units (CFU) per mL was also carried out in accordance with the method published by Miles, Misra and Irwin described above in section c.1). All of the tests were carried out four times.
The photosensitizers (PS) SACUR-01a, SACUR-03 and SACUR-07 were tested against the bacterial strains S. aureus ATCC 25923 and E. coli ATCC 25922 (FIGS. 21-23). All of the remaining PS were tested against S. aureus ATCC 25923 (FIGS. 24-33). FIGS. 21-33 show the logarithmic reduction after illumination with respect to the reference control.
The average reference control (arithmetic mean with standard deviation) (no light, no PS) was 3.6×10^8/mL for E. coli. The logarithmic reduction after illumination is shown with respect to the reference control.

S. aureus ATCC 25923 [5] = test: as above; format: cell-based, Staphylococcus aureus; settings: for log reduction at 10 µM / log reduction at 50 µM: Staphylococcus aureus, ATCC25923, light or radiation study, 5 min; for log reduction at 10 µM: read-out: Effectiveness against S. aureus: Reduction in CFU in log10 at concentration of 10 μM; for log reduction at 50 µM: read-out: Effectiveness against S. aureus: Reduction in CFU in log10 at concentration of 50 μM
Description: A sample of the bacterial cell Staphylococcus. aureus (ATCC number: 25923) or Escherichia. coli (ATCC number: 25922) was removed from a cryo-freeze culture and cultured under aerobic conditions at 37° C. and 175 rpm overnight in an orbital shaker (MAXQ4000, Thermo Scientific, Dubuque, Iowa, USA). Growth was carried out in 20 mL Todd-Hewitt broth (Carl Roth, Karlsruhe, Germany) supplemented with 0.3% of yeast extract (AppliChem, Darmstadt, Germany). In a second experiment, the photosensitizers (PS) used were dissolved in Millipore water and adjusted to various concentrations. 25 μL of a bacterial suspension grown overnight ( 108/mL) was incubated with 25 μL of photosensitizer solution of the various concentrations at room temperature for 10 seconds in darkness in a 96-well plate. Next, the suspension was irradiated for 5-20 minutes. For the irradiation, the light source BlueV from […], Germany) was used, which emits light from 380 to 480 nm (emission maximum at approximately 420 nm). The applied energy density was 17.5 mW/cm^2. Each experiment was accompanied by three controls in order to exclude side effect of the irradiation/photosensitizer (PS) on the survival of the bacteria: (i) no PS, only light (=light control), (ii) no light, only PS (=dark control) and (iii) neither light nor PS (=reference control). […] All of the tests were carried out four times. […] All of the remaining PS were tested against S. aureus ATCC 25923 (FIGS. 24-33). FIGS. 21-33 show the logarithmic reduction after illumination with respect to the reference control. […] The irradiation period was 5 minutes (emission maximum at approximately 420 nm) for an applied intensity of 17.5 mW/cm^2, i.e. an applied light energy (dosage) of 5.3 J/cm^2. The average reference control (arithmetic mean with standard deviation) (no light, no PS) was 3.9×10^8/mL. The logarithmic reduction after illumination is shown with respect to the reference control.

[6] = natural curcumin, background statement; cited from earlier work
[7] = 10 μM, irradiation 5 minutes, approx. 420 nm, 17.5 mW/cm^2, 5.3 J/cm^2, vs reference control
[8] = 50 μM, irradiation 5 minutes, approx. 420 nm, 17.5 mW/cm^2, 5.3 J/cm^2, vs reference control
[9] = irradiation 5 minutes, approx. 420 nm, 17.5 mW/cm^2, 5.3 J/cm^2, vs reference control

Which results are given for CN(C)c1ccc(/C=C/C2=CC(=C/C=C3C=CC(=[N+](C)C)C=C3)/O[B-](F)(F)O2)cc1 [CRANAD-2, reference compound]?
Inactivation of S. aureus ATCC 25923 upon illumination in the presence of the compound (S. aureus ATCC 25923 [1]): could not be ascertained; Inactivation of E. coli ATCC 25922 upon illumination in the presence of the compound (E. coli ATCC 25922 [2]): could not be ascertained

Which “Stability in aqueous solution” value [3] does the source give for Cl.Cl.NCCOc1ccc(/C=C/C(=O)CC(=O)/C=C/c2ccc(OCCN)c(O)c2)cc1O [Curcumin 01d hydrochloride] here?
Its value is “low stability”.

What about the “Inactivation of S. aureus ATCC 25923 upon illumination in the presence of the compound” value (S. aureus ATCC 25923 [1]) of the same molecule?
Its value is “Hardly any inactivation”.

What about the “Inactivation of E. coli ATCC 25922 upon illumination in the presence of the compound” value (E. coli ATCC 25922 [2]) of the same molecule?
The value was “Hardly any inactivation”.

What does the source list for CCCCCCCCOc1ccc(/C=C/C(=O)CC(=O)/C=C/c2ccc(OCCCCCCCC)c(OCCN)c2)cc1OCCN.Cl [Curcumin 07 hydrochloride]?
Effectiveness against E. Coli: Reduction in CFU in log10 at concentration of 10 μM (E. coli ATCC 25922 [4]; 10 μM): >1 log10; Effectiveness against E. Coli: Reduction in CFU in log10 at concentration of 50 μM (E. coli ATCC 25922 [4]; 50 μM): >4 log10; log reduction at 10 µM (S. aureus ATCC 25923 [5]; [7]): > 2; log reduction at 50 µM (S. aureus ATCC 25923 [5]; [8]): > 5

With COc1cc(/C=C/C(=O)C(C)C(=O)/C=C/c2ccc(OCCN)c(OC)c2)ccc1OCCN [Curcumin 09a hydrochloride] as the molecule, how does the log reduction at 10 µM (S. aureus ATCC 25923 [5]; [7]) read?
The log reduction at 10 µM was greater than 2.

What about the log reduction at 50 µM (S. aureus ATCC 25923 [5]; [8]) of the same molecule?
Its log reduction at 50 µM is greater than 5.

With COc1ccc(/C=C/C(=O)C(CCN)C(=O)/C=C/c2ccc(OC)c(OC)c2)cc1OC.Cl [Curcumin 11a hydrochloride] as the molecule, how does the “Effectiveness against S. aureus: Reduction in CFU in log10 at concentration of 100 μM” value (S. aureus ATCC 25923 [5]; [9]) read?
Its value is greater than 2 log10.

What about the “Effectiveness against S. aureus: Reduction in CFU in log10 at concentration of 250 μM” value (S. aureus ATCC 25923 [5]; [9]) of the same molecule?
Its value is greater than 5 log10.

And the log reduction at 50 µM (S. aureus ATCC 25923 [5]; [8])?
Its log reduction at 50 µM is greater than 1.

For Cl.Cl.NCCOc1ccc2cc(/C=C/C(=O)CC(=O)/C=C/c3ccc4cc(OCCN)ccc4c3)ccc2c1 [Curcumin 12b hydrochloride], which “Effectiveness against S. aureus: Reduction in CFU in log10 at concentration of 100 μM” value (S. aureus ATCC 25923 [5]; [9]) is on record?
Its value is roughly 2 log10.

And the “Effectiveness against S. aureus: Reduction in CFU in log10 at concentration of 250 μM” value (S. aureus ATCC 25923 [5]; [9])?
The value was greater than 3 log10.

And the log reduction at 50 µM (S. aureus ATCC 25923 [5]; [8])?
Its log reduction at 50 µM is greater than 1.

With COc1ccc(/C=C/C(=O)C(CCN)C(=O)/C=C/c2ccc(OC)c(OCCN)c2)cc1OCCN [Curcumin 13a hydrochloride] as the molecule, how does the log reduction at 10 µM (S. aureus ATCC 25923 [5]; [7]) read?
Its log reduction at 10 µM is greater than 1.

What about the log reduction at 50 µM (S. aureus ATCC 25923 [5]; [8]) of the same molecule?
The log reduction at 50 µM was greater than 5.

Which log reduction at 10 µM (S. aureus ATCC 25923 [5]; [7]) does the source give for COc1cc(/C=C/C(=O)C(C)C(=O)/C=C/c2ccc(OCCN)c(OCCN)c2)ccc1OCCN (stereo not shown) [Curcumin 13c hydrochloride] here?
The log reduction at 10 µM was greater than 1.

And the log reduction at 50 µM (S. aureus ATCC 25923 [5]; [8])?
Its log reduction at 50 µM is greater than 5.

For COc1cc(/C=C(\C)C(=O)CC(=O)/C(C)=C/c2ccc(OCCN)c(OC)c2)ccc1OCCN.Cl.Cl [Curcumin 14a hydrochloride], which “Effectiveness against S. aureus: Reduction in CFU in log10 at concentration of 100 μM” value (S. aureus ATCC 25923 [5]; [9]) is on record?
Its value is greater than 2 log10.

What about the “Effectiveness against S. aureus: Reduction in CFU in log10 at concentration of 250 μM” value (S. aureus ATCC 25923 [5]; [9]) of the same molecule?
The value was greater than 3 log10.

What about the log reduction at 50 µM (S. aureus ATCC 25923 [5]; [8]) of the same molecule?
The log reduction at 50 µM was greater than 1.

What does the source list for COc1cc(/C=C/C(=O)CC(=O)/C=C/c2ccc(OCCC[P+](C)(C)C)c(OC)c2)ccc1OCCC[P+](C)(C)C [Curcumin 15a hydrochloride, 3,3′-(4,4′-((1E,6E)-3,5-dioxohepta-1,6-diene-1,7-diyl)bis(2-methoxy-4,1-phenylene))bis(oxy)bis(trimethylpropan-1-phosphonium) chloride]?
log reduction at 10 µM (S. aureus ATCC 25923 [5]; [7]): ~1; log reduction at 50 µM (S. aureus ATCC 25923 [5]; [8]): > 5

With COc1cc(/C=C/C(=O)CC(=O)/C=C/c2ccc(OCCC[P+](c3ccccc3)(c3ccccc3)c3ccccc3)c(OC)c2)ccc1OCCC[P+](c1ccccc1)(c1ccccc1)c1ccccc1 [Curcumin 15b hydrochloride, 3,3′-(4,4′-((1E,6E)-3,5-dioxohepta-1,6-diene-1,7-diyl)bis(2-methoxy-4,1-phenylene))bis(oxy)bis(triphenylpropan-1-phosphonium) chloride] as the molecule, how does the log reduction at 10 µM (S. aureus ATCC 25923 [5]) read?
Its log reduction at 10 µM is greater than 4.

What about the log reduction at 50 µM (S. aureus ATCC 25923 [5]) of the same molecule?
The log reduction at 50 µM was greater than 5.

For COc1cc(C=CC(=O)CC(=O)C=Cc2ccc(O)c(OC)c2)ccc1O [curcumin, 1,7-bis-(4-hydroxy-3-methoxyphenyl)-1,6-heptadiene-3,5-dione], which Solubility in water [6] is on record?
The Solubility in water was “low solubility in water”.

For “(1E,6E)1,7- bis(4-(2- aminoethoxy)-3- methoxy- phenyl)hepta-1,6- diene-3,5-dione hydrochloride BF2 complex [Curcumin 01a BF-complex]”, which “Effectiveness against S. aureus: Reduction in CFU in log10 at concentration of 10 μM” value (S. aureus ATCC 25923 [5]; [7]) is on record?
Its value is greater than 5 log10.

What about the “Effectiveness against S. aureus: Reduction in CFU in log10 at concentration of 50 μM” value (S. aureus ATCC 25923 [5]; [8]) of the same molecule?
Its value is greater than 5 log10.
